Laboratory results published in article PMC6934184, “Selective DNA-PKcs inhibition extends the therapeutic index of localized radiotherapy and chemotherapy” (The Journal of Clinical Investigation, 2019).

Target: T1, GRK1 (Homo sapiens, UniProt Q15835)
T1 construct: purchased Thermo Fisher Scientific (Life Technologies) SelectScreen
Assay: SelectScreen LanthaScreen
Type: binding
Settings: read-out: % displacement
Procedure, shortened: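 SelectScreen broad panel; activity (Z'LYTE, Adapta) plus binding formats. ATP: Km app for CSF1R Z'LYTE; 10 for CAMK1 Adapta. Readout = % per kinase.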

T1 sequence (Q15835 whole entry): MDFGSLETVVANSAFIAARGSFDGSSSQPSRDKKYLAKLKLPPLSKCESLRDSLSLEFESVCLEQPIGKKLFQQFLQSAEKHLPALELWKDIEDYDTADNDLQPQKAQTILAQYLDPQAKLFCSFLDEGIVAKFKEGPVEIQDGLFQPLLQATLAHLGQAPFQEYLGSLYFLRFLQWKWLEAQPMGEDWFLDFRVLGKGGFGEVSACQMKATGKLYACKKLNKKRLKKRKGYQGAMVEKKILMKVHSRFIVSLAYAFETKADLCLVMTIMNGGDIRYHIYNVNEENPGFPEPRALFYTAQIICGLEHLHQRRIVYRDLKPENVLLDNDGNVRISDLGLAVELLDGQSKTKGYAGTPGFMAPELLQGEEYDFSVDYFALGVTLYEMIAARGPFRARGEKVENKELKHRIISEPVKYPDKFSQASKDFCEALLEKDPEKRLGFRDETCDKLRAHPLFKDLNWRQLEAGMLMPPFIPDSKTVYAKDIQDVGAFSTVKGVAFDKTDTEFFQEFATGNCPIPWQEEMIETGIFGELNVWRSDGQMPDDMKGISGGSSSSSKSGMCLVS

Work on `CN(C(=O)CN1CCOCC1)c1ccc2sc3c(-c4cccc5c(=O)cc(N6CC7CCC(C6)O7)oc45)cccc3c2c1` [NU5455] yielded an inhibition at 1 µM of 1.3%.
